Assay results reported in patent US20050234063A1, “Therapeutic agent for brain hemorrhage” (priority 2002, published 2005).

What was measured:
[1] = tested on: subarachnoid bleeding model animal; conditions: subarachnoid bleeding model animal injected with one's own blood; Non-patent Reference 6; cited from earlier work
[2] = disclosed in Patent Reference 1 (WO 96/10023); cited from earlier work
[3] = tested on: ischemic reperfusion model; conditions: Non-patent Reference 5; cited from earlier work
[4] = tested on: cerebral hemorrhage model; experiment: Neurological symptom score in collagenase-induced rat cerebral hemorrhage model; assay type: in vivo; conditions: 10 or 20 mg/kg/h; for neurological symptom score on the 2nd day after collagenase injection, versus physiological saline administration group / neurological symptom score on the 14th day after collagenase injection, versus physiological saline administration group: 24 h intravenous continuous injection started 30 min after collagenase, Steel test
Experimental: A cerebral hemorrhage model was prepared by the following procedure by adding a partial modification to the method of Rosenberg et al. (Stroke, 21, 801-807, 1990). Each of male Sprague-Dawley rats (240 to 330 g in body weight, Charles River Japan) was subjected to continuous anesthesia with 1% halothane under spontaneous respiration and fixed on a stereotaxic instrument. The skull was exposed by carrying out median skin incision of the head of the animal, and a small bone window was opened on the skull using a dental drill (C730, MINIMO) at a position of 0.2 mm in the front side (A: +0.2 mm) and 3.0 mm in the left side (L: +3.0 mm) based on dBregma in accordance with the Paxinos's brain pictorial book (Paxinos G and Watson C, The rat brain in the stereotaxic coordinates (1986) Academic Press, New Yolk). An administration needle of 30G was inserted to a depth of 6.0 mm (H: −6.0 mm) from the skull and then pulled out 0.3 mm to ensure an administration space (central part of the striatum). A solution of collagenase (10 units/ml, type IV, Lot 99H8641, Sigma) was injected at a flow rate of 0.2 μl/min for 7 minutes (1.4 μl) using a micro-syringe pump (Neuroscience Syringe Pump 100, Muromachi). The administration needle was slowly pulled out after completion of the injection, scalp suture was carried out, and then the animal was revived by warming up under an incandescent lamp. It has been reported that a cerebral hemorrhage locally limited to the striatum is generated 0.5 to 4 hours after injection of collagenase in this rat cerebral hemorrhage model (Stroke, 27, 2312-2320, 1996).
As the administration of medicament, zonampanel monohydrate (hereinafter, compound a) was used. After 30 minutes of the collagenase injection, intravenous injection of zonampanel was started via a canula indwelled in the common jugular vein. The compound a was dissolved in physiological saline at a concentration of 10 mg/5 ml or 20 mg/5 ml and then subjected to 24 hours of intravenous continuous injection under shading at a dose of 10 mg/5 ml/kg/h (compound a (10 mg/kg) administration group) or 20 mg/5 ml/kg/h (compound a (20 mg/kg) administration group). In the control group, physiological saline was subjected to 24 hours of intravenous continuous injection at a dose of 5 ml/kg/h (physiological saline administration group). The number of animals in respective groups was 6 animals in the compound a (10 mg/kg) administration group, 9 animals in the compound a (20 mg/kg) administration group, and 9 animals in the physiological saline administration group.
Staring after 30 minutes of the injection of collagenase into the striatum, the compound a was subjected to 24 hours of intravenous continuous injection at a dose of 10 mg/kg/h (compound a (10 mg/kg) administration group, 6 cases) or 20 mg/kg/h (compound a (20 mg/kg) administration group, 9 cases), and a neurological symptom of each animal was observed before the injection of collagenase and on the 2nd and 14th days after the collagenase injection. Physiological saline was administered to the control group (physiological saline administration group, 9 cases).
Scoring criteria of the neurological symptom are as follows. This was scored by 5 steps (O to 4) based on the behavior of each animal when the waist part of the animal was pushed toward the front side.
Score 1: Turning right is predominant but sometimes turns left.
Score 0: Normal, no left-right turning inclination. […]

[5] = tested on: cerebral infarction models; conditions: various cerebral infarction models; reported; cited from earlier work
AMPA receptor = conditions: disclosed in Patent Reference 1 (WO 96/10023); cited from earlier work

Row | SMILES | effect on vascular permeability acceleration [1] | water-solubility [2] | time after drug administration from which the neurological symptoms improving action is observed [3] | neurological symptom score on the 2nd day after collagenase injection, versus physiological saline administration group ([4]; listed as zonampanel, monohydrate) | neurological symptom score on the 2nd day after collagenase injection, versus physiological saline administration group ([4]; monohydrate) | neurological symptom score on the 14th day after collagenase injection, versus physiological saline administration group ([4]; p<0.05, listed as zonampanel, monohydrate) | neurological symptom score on the 14th day after collagenase injection, versus physiological saline administration group ([4]; p<0.05, monohydrate) | change of neurological symptom score as the days elapsed, in comparison with the control ([4]; 24 h intravenous continuous injection, days 0 to 14 (FIG. 1)) | effect on progress of infarction foci [5] | AMPA receptor binding activity (AMPA receptor)
1 | CC1=NN=C(c2ccc(N)cc2)c2cc3c(cc2C1)OCO3 [GYK152466] | inhibits vascular permeability acceleration |  |  |  |  |  |  |  |  | 
2 | O.O=C(O)Cn1c(=O)c(=O)[nH]c2cc([N+](=O)[O-])c(-n3ccnc3)cc21 [compound a, [7-(1H-imidazol-1-yl)-6-nitro-2,3-dioxo-3,4-dihydroquinoxalin-1(2H)-yl]acetic acid monohydrate] |  | high | ≥ 24 hours | does not show significant effect | almost the same | significant improving effect | significantly light | improving tendency | inhibit progress of infarction foci | potent and selective
